Results published in patent US20250223331A1, “GLP-1/GIP DUAL-TARGETED POLYPEPTIDE AND FUSION PROTEIN AND APPLICATIONS THEREOF” (SUNSHINE LAKE PHARMA CO., LTD., priority 2021, published 2025).
Marks after values point to notes of the source that are not given here.

Tests used:
Format in all cases: in vivo
normal C57BL/6 mice [1] = assay: glucose tolerance in normal C57BL/6 mice (Example 7); settings: 3 nmol/kg s.c. single dose, 72 h after dose, 2 g/kg glucose i.p.
normal C57BL/6 mice [2] = assay: glucose tolerance in normal C57BL/6 mice (Example 8); settings: 3 nmol/kg s.c. single dose, 72 h after dose
Experimental: Experimental methods: Normal C57BL/6 mice were randomly divided into 6 groups (Vehicle group, Dulaglutide group, HEC-G113 group, HEC-G122 group, HEC-G126 group, HEC-G127 group) according to blood glucose and body weight, with 8 mice in each group. For the groups of Dulaglutide (Dulaglutide purchased from Eli Lilly, lot number was D256504), HEC-G113, HEC-G122, HEC-G126 and HEC-G127, the corresponding drug was injected subcutaneously into the mice at a dose of 3 nmol/kg, and for the control group, the corresponding vehicle was injected subcutaneously.
(§1) After 60 h of single administration, the mice were fasted for 12 h and drank water freely. Blood was collected from the tail vein to measure the basal blood glucose value of each group, then 2 g/kg of glucose solution was injected intraperitoneally, and blood glucose was measured at 15, 30, 60, 90 and 0 min after glucose administration. According to the blood glucose values measured at different time points, the blood glucose concentration-time curve was plotted, and the AUC0˜90min of each dose group was calculated, and the experimental results are shown in Table 7 and FIGS. 3-4

normal C57BL/6 mice [3] = assay: glucose tolerance in normal C57BL/6 mice (Example 7); settings: 3 nmol/kg s.c. single dose, 72 h after dose
Experimental: Experimental methods: Normal C57BL/6 mice were randomly divided into 6 groups (Vehicle group, Dulaglutide group, HEC-G123 group, HEC-G128 group, HEC-G131 group, HEC-G132 group) according to blood glucose and body weight, with 8 mice in each group. For the groups of Dulaglutide, HEC-G123, HEC-G128, HEC-G131 and HEC-G132, the corresponding drug was injected subcutaneously into the mice at a dose of 3 nmol/kg, and for the control group, the corresponding vehicle was injected subcutaneously.
as §1, with “60,” for “60, 90”, “6” for “7”, “1-2.” for “3-4”

[4] = blood glucose concentration-time curve

## Dulaglutide [reference compound]
Normal C57BL/6 mice [1]
  Blood glucose value 90 min: 6.8 ± 0.6 mM
Normal C57BL/6 mice [2]; 2 g/kg glucose i.p., 0 min
  Blood glucose value 0 min: 4.3 ± 0.4 mM
Normal C57BL/6 mice [2]; 2 g/kg glucose i.p., 15 min
  Blood glucose value 15 min: 15.3 ± 3.1 mM
Normal C57BL/6 mice [2]; 2 g/kg glucose i.p., 30 min
  Blood glucose value 30 min: 15.1 ± 2.7 mM
Normal C57BL/6 mice [2]; 2 g/kg glucose i.p., 60 min
  Blood glucose value 60 min: 9.1 ± 1.3 mM
Normal C57BL/6 mice [2]; 2 g/kg glucose i.p., 90 min
  Blood glucose value 90 min: 6.8 ± 0.9 mM
Normal C57BL/6 mice [2]; [4]
  AUC0-90 min: 976.2 ± 135.6 ^a
Normal C57BL/6 mice [3]; 2 g/kg glucose i.p., 0 min
  Blood glucose value 0 min: 4.4 ± 0.8 mM
Normal C57BL/6 mice [3]; 2 g/kg glucose i.p., 15 min
  Blood glucose value 15 min: 15.7 ± 2.2 mM
Normal C57BL/6 mice [3]; 2 g/kg glucose i.p., 30 min
  Blood glucose value 30 min: 12.7 ± 2.4 mM
Normal C57BL/6 mice [3]; 2 g/kg glucose i.p., 60 min
  Blood glucose value 60 min: 8.1 ± 1.0 mM
Normal C57BL/6 mice [3]; [4]
  AUC0-90 min: 899.0 ± 105.4 ^a
